From patent publication US12403132B2, “Methods of treating bone marrow failure syndromes and compositions for use in the same” (The Board of Trustees of the Leland Stanford Junior …, priority 2020, dated 2025)

Key:
S6K = S6K phosphorylation in differentiating RPS19-insufficient CD34+ progenitors; type: cell-based, human; details: 5 μM, differentiating RPS19-insufficient cells
Experimental: FIG. 5. NLK-mediated phosphorylation of raptor leads to reduced mTOR activity and increased autophagy. (a) Fetal liver CD34+ progenitors were transduced with controls or shRPS19 and differentiated for 5 days in the presence or absence of 5 μM BI-D1870 (RSK inhibitor). Samples were lysed and normalized for protein abundance before being subjected to immunoprecipitation of NLK, raptor, S6K and 4E-BP1. Immunoprecipitated NLK was utilized to examine NLK activity (a—top panel—Orange, blue and green depict NLK, Myb and raptor phosphorylation respectively), while raptor, S6K and 4E-BP1 were subjected to western blotting for phosphorylated serine/threonine residues (bottom panels). In parallel, lysates were probed for total raptor, S6K, 4E-BP1, NLK and GAPDH (bottom panels) by Western blotting. […] (d) Cells treated as above were plated in 96 wells and absorbance measured at a wavelength of 520 nm. […] After imagining, 100 cells per group were analyzed and the number of intense fluorescent puncta per cell was scored (lower panels).
Raptor is the regulatory component of the mTOR Complex 1 and a substrate of NLK in osmotic and oxidative stress. […] We determined immuno-purified NLK from human and murine RPS19- and RPL11-insufficient progenitors, as well as derived from DBA patients can phosphorylate raptor in vitro (FIGS. 1-4). […]

red cell production = experiment: Red cell production in in vitro DBA models; type: cell-based
Source text: (§1) IV. Nemo-like kinase (NLK) is hyperactivated in red cell precursors in the bone marrow of patients with DBA. Inhibition of NLK by knockdown or chemical compounds in our in vitro DBA models results in improvement of red cell production. Regardless of the underlying genetic mutation causing DBA, NLK is hyperactivated. […] Our goal is to next test OTS167 in mouse models of DBA. According to clinical trials.gov, OTS167 is currently in trials for AML, ALL, MDS, MPN, and CML, solid tumors, and breast cancer, but not DBA. This is the first example of a targeted therapy for all DBA patient regardless of the underlying mutations. Giving this drug would be easier and cheaper than gene editing to correct the gene defect.

normal bone marrow cells = experiment: Toxicity to normal bone marrow cells; type: cell-based; details: in vitro
Source text: as §1

NLK = target: T1, NLK (Homo sapiens, UniProt Q9UBE8); experiment: NLK inhibition by OTS167 in DBA models
T1 sequence (Q9UBE8 1-527): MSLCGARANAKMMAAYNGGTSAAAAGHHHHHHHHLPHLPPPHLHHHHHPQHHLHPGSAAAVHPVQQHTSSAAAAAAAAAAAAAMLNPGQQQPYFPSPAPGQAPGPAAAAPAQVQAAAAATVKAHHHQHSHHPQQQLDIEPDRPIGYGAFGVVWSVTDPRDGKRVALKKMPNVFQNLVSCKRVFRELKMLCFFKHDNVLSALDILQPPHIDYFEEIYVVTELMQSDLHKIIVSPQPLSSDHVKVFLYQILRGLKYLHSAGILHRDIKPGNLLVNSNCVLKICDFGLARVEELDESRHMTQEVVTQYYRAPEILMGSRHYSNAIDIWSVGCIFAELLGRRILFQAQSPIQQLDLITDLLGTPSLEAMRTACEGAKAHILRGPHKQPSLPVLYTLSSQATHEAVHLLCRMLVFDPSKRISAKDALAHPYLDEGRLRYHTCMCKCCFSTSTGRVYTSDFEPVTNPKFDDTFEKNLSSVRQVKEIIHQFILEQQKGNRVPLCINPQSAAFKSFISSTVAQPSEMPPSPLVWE
Source text: as §1

Compound | S6K phosphorylation (S6K) | red cell production in vitro (red cell production) | toxicity to normal bone marrow cells (normal bone marrow cells) | inhibition of NLK (NLK)
CC(C)CCN1c2nc(Nc3cc(F)c(O)c(F)c3)ncc2N(C)C(=O)C1C (stereo not shown) [BI-D1870] | reduced to below basal levels | – | – | –
CC(=O)c1cnc2ccc(-c3cc(Cl)c(O)c(Cl)c3)nc2c1N[C@H]1CC[C@H](CN(C)C)CC1 [OTS167] | – | improves red cell production | without toxicity | inhibit NLK
